The results in this text go back to patent publication US12628802B2, “Genetically modified rat having PKHD1L1 gene with point mutation and methods for its construction, detection and use” (HUASHAN HOSPITAL AFFILIATED TO FUDAN UNIVERSITY, priority 2022, dated 2026).

Assay [1] concerns pyramidal neurons in the cerebral cortex. The assay is described as follows: Patch clamp recording of sEPSC and sIPSC of cortical pyramidal neurons in brain slices. It is filed as cell-based, rat. The settings on record: epilepsy group (PKHD1L1+/− rats) after H89 treatment. From the text: Results of Electrophysiological Examination of Transgenic Animal Brain Slices
In transgenic animals (PKHD1L1+/− rats), neuronal excitability increased, and H89 reduced the frequency of spontaneous excitatory post synaptic currents (sEPSC) in pyramidal neurons in the cerebral cortex.
A patch clamp technique was used to record sEPSC and sIPSC (e.g., spontaneous inhibitory post synaptic currents) of cortical pyramidal neurons […], and to observe the changes in excitatory synaptic transmission and inhibitory synaptic transmission of pyramidal neurons in each group of rats, so as to reflect any changes in neuronal excitability.

Assay [2] shares this test system. Description: Recording of Na+ and K+ currents in pyramidal neurons in brain slices. Format: cell-based, rat. The settings on record: control, epilepsy and epilepsy+H89 groups compared. The procedure:
Neuronal excitability is related to Na+ and K+ currents, so the Na+ and K+ currents in pyramidal neurons in the cerebral cortex of each group of rats (e.g., PKHD1L1+/− and wild-type) were recorded. As shown in FIGS. 15A-B, there was no difference in Na+ and K+ currents in pyramidal neurons of rats among all groups (3 young rats in each group, 6 cells in the control [WT] group, 6 cells in the epilepsy [e.g., PKHD1L1+/−] group, and 6 cells in the epilepsy+H89 group), […].

For assay [3] the test system is unchanged. Description: Recording of the action potential of pyramidal neurons in brain slices. Format: cell-based, rat. The method, then: H89 can reduce the excitability of pyramidal neurons in the cerebral cortex of rats with epilepsy. In order to further confirm the excitability of pyramidal neurons in the cerebral cortex, the action potential of pyramidal neurons was recorded. Action potential can intuitively reflect the excitability of neurons. […] Compared with the control group (e.g., WT rats), the positive potential of the epileptic group was decreased after H89 treatment, and the neuronal potential was increased after H89 treatment (P>0.05). There was no difference in the peak and half-duration of the action potential between the two groups. […] It was shown that a reduced neuron action potential threshold in epileptic rats indicates […] of pyramidal neurons, and H89 reversed this trend and improved epileptic symptoms in rats (FIGS. 16A-F).

In assay [4] the test system is wild-type (WT) rats. Description: PTZ-induced epilepsy model, wild-type rats. It is filed as in vivo, rat. The procedure: (§1) Subsequently, the epileptic susceptibility of PKHD1L1+/− rats was studied using a PTZ-induced epilepsy model: A total of 10 male PKHD1L1+/− rats and 10 male wild-type (WT) rats with body weights matched with age (in weeks) were selected for inducing epileptic seizures with PTZ (40 mg/kg). The dose of PTZ selected is lower than the conventional dose in such animal modeling. Only 2 out of the 10 wild-type rats (20%), but 7 out of the 10 (70%) PKHD1L1+/− rats, were induced to have grand mal seizures of grade 4-5 (see FIG. 13A).

Assay [5] relates to PKHD1L1+/− rats. Description: PTZ-induced epilepsy model, PKHD1L1+/- rats. It is filed as in vivo, rat. The conditions noted are these: PTZ 40 mg/kg. The procedure: as §1

Entries after “also recorded” stand apart in the source; their conditions may differ.

For the compound `O=S(=O)(NCCNC/C=C/c1ccc(Br)cc1)c1cccc2cnccc12` [H89], in assay [1], the sEPSC amplitude entry is listed as “decreased” and the sEPSC frequency entry is given as “reduced; also recorded: decreased”. Further, in assay [2], the “K+ currents in pyramidal neurons” value was “no difference” and the “Na+ currents in pyramidal neurons” value is reported as “no difference”. Also, in assay [3] (between groups), the “half-duration of the action potential” value is given as “no difference” and the “peak of the action potential” value is listed as “no difference”. The action potential threshold entry in assay [3] (epilepsy group after H89 treatment, P<0.05) is reported as “increased”. Also, the “positive post-potential (neuronal potential) of the action potential” value in assay [3] (epilepsy group after H89 treatment, P>0.05) is reported as “increased”.
On to `C1CCc2nnnn2CC1` [PTZ, pentylenetetrazole], for which the “rats induced to have grand mal seizures of grade 4-5” value in assay [4] (PTZ 40 mg/kg, 10 male wild-type rats) turned out to be 20%; in assay [5] (10 male PKHD1L1+/− rats) it was 70%. In addition, in assay [4] (additional 5 mg/kg at 15-minute intervals, wild-type rats compared with PKHD1L1+/− rats), the “mean dose of PTZ required to exhibit grade 4-5 seizures” value is recorded as “statistically significantly higher”. The “maximum seizure level reached” value in assay [5] (PKHD1L1+/− rats compared with wild-type rats) is on record as “significantly higher”.
